Where two headings read alike, the source gives them in different places.
What was measured:
[1] = system: Male Sprague-Dawley rats (carrageenan foot edema)
Description: Rat Carrageenan Foot Pad Edema Test
Male Sprague-Dawley rats were selected in each group so that the average body weight was as close as possible. Rats were fasted with free access to water for over sixteen hours prior to the test. […] One hour later a subplantar injection of 0.1 mL of 1% solution of carrageenan/sterile 0.9% saline was administered and the volume of the injected foot was measured with a displacement plethysmometer connected to a pressure transducer with a digital indicator. Three hours after the injection of the carrageenan, the volume of the foot was again measured.

[2] = system: Male Sprague-Dawley rats (carrageenan hyperalgesic foot withdrawal); details: rat
Description: Rat Carrageenan-induced Analgesia Test
Male Sprague-Dawley rats were treated as previously described for the carrageenan Foot Pad Edema test. Three hours after the injection of the carrageenan, the rats were placed in a special plexiglass container with a transparent floor having a high intensity lamp as a radiant heat source, positionable under the floor. After an initial twenty minute period, thermal stimulation was begun on either the injected foot or on the contralateral uninjected foot. A photoelectric cell turned off the lamp and timer when light was interrupted by paw withdrawal. The time until the rat withdraws its foot was then measured. The withdrawal latency in seconds was determined for the control and drug-treated groups, and percent inhibition of the hyperalgesic foot withdrawal determined.

Human COX II = biological target: T1, Human COX II (Homo sapiens, UniProt P35354); experiment: Assay for COX II activity in vitro (PGE2 ELISA, recombinant enzyme); assay type: biochemical; details: read-out: Human COX II ID50
T1 construct: A 2.0 kb fragment containing the coding region of either human or murine COX-I or human or murine COX-II; made in house; host or cells: SF9 insect cells (baculovirus, transfer vector pVL1393)
T1 sequence (P35354 18-604): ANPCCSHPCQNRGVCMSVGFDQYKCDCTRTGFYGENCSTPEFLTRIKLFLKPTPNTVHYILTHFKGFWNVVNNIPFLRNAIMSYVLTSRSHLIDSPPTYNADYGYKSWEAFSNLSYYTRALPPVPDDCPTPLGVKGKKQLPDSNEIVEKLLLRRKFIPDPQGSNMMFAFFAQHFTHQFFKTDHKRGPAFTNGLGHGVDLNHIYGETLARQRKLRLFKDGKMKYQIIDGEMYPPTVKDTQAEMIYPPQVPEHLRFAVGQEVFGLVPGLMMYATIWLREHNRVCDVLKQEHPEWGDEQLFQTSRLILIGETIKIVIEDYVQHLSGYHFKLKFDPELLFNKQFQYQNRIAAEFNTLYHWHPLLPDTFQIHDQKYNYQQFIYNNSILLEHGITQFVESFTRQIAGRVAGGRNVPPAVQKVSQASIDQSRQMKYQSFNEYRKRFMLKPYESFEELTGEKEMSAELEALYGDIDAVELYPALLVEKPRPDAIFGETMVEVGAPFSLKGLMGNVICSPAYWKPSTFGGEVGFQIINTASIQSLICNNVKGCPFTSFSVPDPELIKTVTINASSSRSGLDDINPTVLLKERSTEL
Description: The COX II inhibition activity of the compounds of this invention illustrated in the Examples was determined by the following methods.

Human COX I = biological target: T2, Human COX I (Homo sapiens, UniProt P23219); experiment: Assay for COX I activity in vitro (PGE2 ELISA, recombinant enzyme); assay type: biochemical; details: read-out: Human COX I ID50
T2 construct: A 2.0 kb fragment containing the coding region of either human or murine COX-I or human or murine COX-II; made in house; host or cells: SF9 insect cells (baculovirus, transfer vector pVL1393)
T2 sequence (P23219 24-599): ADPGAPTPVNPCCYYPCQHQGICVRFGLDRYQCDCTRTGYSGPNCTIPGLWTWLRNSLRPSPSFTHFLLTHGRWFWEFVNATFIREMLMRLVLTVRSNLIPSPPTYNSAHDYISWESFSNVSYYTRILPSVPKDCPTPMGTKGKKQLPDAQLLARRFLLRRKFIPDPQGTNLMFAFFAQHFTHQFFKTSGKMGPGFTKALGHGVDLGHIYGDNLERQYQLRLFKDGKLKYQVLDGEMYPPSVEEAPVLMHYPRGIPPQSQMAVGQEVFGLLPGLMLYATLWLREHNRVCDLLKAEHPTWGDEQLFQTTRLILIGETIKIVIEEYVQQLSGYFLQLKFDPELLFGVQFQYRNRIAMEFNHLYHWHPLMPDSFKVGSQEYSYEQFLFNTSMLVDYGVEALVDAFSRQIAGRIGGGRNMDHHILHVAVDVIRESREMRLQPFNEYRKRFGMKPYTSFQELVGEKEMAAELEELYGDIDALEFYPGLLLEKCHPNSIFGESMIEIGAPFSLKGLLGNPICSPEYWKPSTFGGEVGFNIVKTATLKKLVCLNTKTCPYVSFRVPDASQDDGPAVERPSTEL

[3] = oral, 10 mg/kg body weight, foot volume 3 h after carrageenan
[4] = oral, 30 mg/kg body weight, inhibition of hyperalgesic foot withdrawal

| SMILES | melting point [°C] | IC50 (Human COX II) [µM] | IC50 (Human COX I) [µM] | RAT PAW EDEMA % Inhibition @ 10 mg/kg body weight [1, 3] [%] | ANALGESIA % Inhibition @ 30 mg/kg body weight [2, 4] [%] | also measured |
| --- | --- | --- | --- | --- | --- | --- |
| NS(=O)(=O)c1ccc(-n2nc(C(F)(F)F)cc2-c2ccc(Cl)cc2)cc1 [Example 1, 4-[5-(4-Chlorophenyl)-3-(trifluoromethyl)-1H-pyrazol-1-yl]benzenesulfonamide] | – | – | – | – | – | RAT PAW EDEMA % Inhibition @ 10 mg/kg body weight ([1]; in vivo): 44%; ANALGESIA % Inhibition @ 30 mg/kg body weight ([2]; in vivo): 94% |
| CCc1c(C(F)(F)F)nn(-c2ccc(S(N)(=O)=O)cc2)c1-c1ccc(OC)c(C)c1 [Example 202, 4-[4-Ethyl-5-(3-methyl-4-methoxyphenyl)-3-(trifluoromethyl)-1H-pyrazol-1-yl]benzenesulfonamide] | 135 to 136 | < 0.1 | 91 | – | – | – |
| NS(=O)(=O)c1ccc(-n2nc(C(F)F)cc2-c2ccc(Cl)cc2)cc1 [Example 58, 4-[5-(4-Chlorophenyl)-3-(difluoromethyl)-1H-pyrazol-1-yl]benzenesulfonamide] | – | – | – | 36 | 65 | – |
| COc1ccc(-c2cc(C(F)F)nn2-c2ccc(S(N)(=O)=O)cc2)cc1 [Example 60, 4-[3-Difluoromethyl-5-(4-methoxyphenyl)-1-H-pyrazol-1-yl]benzenesulfonamide] | – | – | – | 49 | 39 | – |
| NS(=O)(=O)c1ccc(-n2nc(C(F)(F)F)c3c2-c2ccsc2CC3)cc1 [Example 196, 4-[4,5-Dihydro-3-(trifluoromethyl)-1-H-thieno[3,2-g]indazol-1-yl]benzenesulfonamide] | 288 to 290 | 0.6 | 4.1 | – | – | – |
| COc1ccc(-c2cc(C(F)F)nn2-c2ccc(S(N)(=O)=O)cc2)cc1F [Example 59, 4-[5-(3-Fluoro-4-methoxyphenyl)-3-(difluoromethyl)-1H-pyrazol-1-yl]benzenesulfonamide] | – | – | – | – | – | RAT PAW EDEMA % Inhibition @ 10 mg/kg body weight ([1]; in vivo): 25%; ANALGESIA % Inhibition @ 30 mg/kg body weight ([2]; in vivo): 41% |
| NS(=O)(=O)c1ccc(-n2nc(C(F)(F)Cl)cc2-c2ccc(Cl)cc2)cc1 [Example 129, 4-[5-(4-Chlorophenyl)-3-(chloro-difluoromethyl)-1H-pyrazol-1-yl]benzenesulfonamide] | 130 to 133 | < 0.1 | 13.5 | – | – | RAT PAW EDEMA % Inhibition (* Assay performed at 30 mg/kg body weight) ([1]; oral, 30 mg/kg body weight (values marked *), foot volume 3 h after carrageenan): 47* % |
| NS(=O)(=O)c1ccc(-n2nc(CO)cc2-c2ccc(Cl)cc2)cc1 [Example 171, 4-[5-(4-Chlorophenyl)-3-hydroxymethyl-1H-pyrazol-1-yl]benzenesulfonamide] | – | – | – | 14 | 37 | – |
